Values joined by “and” are separate entries in the source; they are usually repeats but may differ in a detail not shown here. Equal entries are not always repeated.
Columns and labels:
Type in all cases: biochemical
recombinant human TOP2B [1] = target: T1, recombinant human TOP2B (Homo sapiens, UniProt Q02880); assay: DNA decatenation assay, recombinant TOP2B; details: for SRbeta (SRTOP2B), decatenation activity: TOP2A IC50 divided by TOP2B IC50; for IC50: enzyme expressed in HEK293F, n=3
T1 construct: Using recombinant full-length human TOP2A and TOP2B enzymes; YFP (N, cleaved yes); made in house; host or cells: HEK293F
Procedure: (§1) The human topoisomerase II decatenation assay was performed to determine the inhibitory effects of BNS-22 and new compounds as previously described with minor modifications[14],[36]. The assay was performed using recombinant human TOP2A or TOP2B generated using the HEK293F YFP-tag expression system as previously described[18],[19],[36]. Briefly, plasmids encoding YFP-TOP2A or YFP-TOP2B were transfected into HEK293F cells (Catalog number 11625019, Thermofisher Scientific), and TOP2 proteins were isolated from cell lysates by anti-YFP nanobody affinity chromatography. After elution by TEV protease cleavage, TOP2 proteins were FPLC purified by sequential cation exchange and size exclusion chromatography. Plasmid encoding TOP2B C88Y was generated by round-the-horn PCR mutagenesis and the sequence was verified by full-plasmid sequencing. Purified TOP2 proteins were stored in a storage buffer containing 20 mM HEPES pH 7.5, 500 mM NaCl, 0.5 mM TCEP, 25% (v/v) glycerol at -80 °C. For decatenation assays, purified TOP2 proteins were incubated with 200 ng kDNA (Topogen) in a reaction buffer containing 50 mM Tris−HCl (pH 8), 100 mM NaCl, 10 mM MgCl2, 0.5 mM DTT, 2 mM ATP, 0.1 mM tris(2-carboxyethyl)phosphine (TCEP), 5% (v/v) glycerol, 70 μg/mL bovine serum albumin, and 1/10 volume of each compound diluted in 10% DMSO (final DMSO concentration 1%) for 40 min at 37 °C. The reaction was then stopped by the addition of gel loading buffer (0.5 volumes of 60% (w/v) glycerol, 60 mM EDTA, 20 mM Tris−HCl (pH 7.5), 0.5 mg/mL bromophenol blue) and the samples were placed on ice. Reaction products were resolved by agarose gel electrophoresis in TBE buffer containing GelRed stain (Biotium). Gels were visualized using an iBright CL1000 (Thermofisher Scientific). Band intensities were quantified using FIJI, and the signal of the treated samples was normalized to the value of the control (untreated sample; 100%) present on the same gel. The normalized signal of three independent measurements was then expressed as mean ± SD. Each presented data point was obtained from distinct sample. Normalized values were plotted as a function of inhibitor concentration to determine IC50 values by nonlinear regression with variable slope using Prism 9 (GraphPad).

recombinant human TOP2B [2] = target: T1, recombinant human TOP2B; assay: In vitro ATPase activity of TOP2B (coupled assay); details: for SRbeta (SRTOP2B), TOP2 ATPase activity: TOP2A IC50 divided by TOP2B IC50; for IC50: n=3
Procedure: Topoisomerase proteins were diluted to 500 nM in storage buffer containing 20 mM HEPES pH 7.5, 500 mM NaCl, 0.5 mM TCEP, 25% glycerol, and 0.2 mg/mL BSA prior to use. A coupled assay was used to measure TOP2-catalyzed ATP hydrolysis in vitro[37] in Costar 96-well plates (Corning Incorporated). […] Reaction plates were pre-warmed to 30 °C for 5 min and ATP was added last to initiate the reaction. The reaction plate was placed in a CLARIOstarPlus plate reader (BMG Labtech) to measure NADH fluorescence at 30 °C every 30 s over 120 cycles using a 340-60 excitation filter and a 480-100 emission filter. Background fluorescence signals calculated from wells containing no ATP were subtracted from each measurement. The slope of NADH fluorescence decay in each well was calculated using the MARS software (BMG Labtech) and reaction wells that lacked topoisomerase inhibitor to account for photobleaching of NADH fluorescence served as background subtraction. Each presented data point was obtained from distinct sample. Values were normalized to untreated controls and plotted as a function of inhibitor concentration to determine IC50 values using Prism 9 (GraphPad).

recombinant human TOP2A = target: T2, recombinant human TOP2A (Homo sapiens, UniProt P11388); assay: DNA decatenation assay, recombinant TOP2A; details: for IC50: enzyme expressed in HEK293F, n=3; for Normalized % TOP2A activity, decatenation: independent replicates
T2 construct: Using recombinant full-length human TOP2A and TOP2B enzymes; YFP (N, cleaved yes); made in house; host or cells: HEK293F
Procedure: as §1

T1 sequence (Q02880 1-1621 isoform Q02880-2): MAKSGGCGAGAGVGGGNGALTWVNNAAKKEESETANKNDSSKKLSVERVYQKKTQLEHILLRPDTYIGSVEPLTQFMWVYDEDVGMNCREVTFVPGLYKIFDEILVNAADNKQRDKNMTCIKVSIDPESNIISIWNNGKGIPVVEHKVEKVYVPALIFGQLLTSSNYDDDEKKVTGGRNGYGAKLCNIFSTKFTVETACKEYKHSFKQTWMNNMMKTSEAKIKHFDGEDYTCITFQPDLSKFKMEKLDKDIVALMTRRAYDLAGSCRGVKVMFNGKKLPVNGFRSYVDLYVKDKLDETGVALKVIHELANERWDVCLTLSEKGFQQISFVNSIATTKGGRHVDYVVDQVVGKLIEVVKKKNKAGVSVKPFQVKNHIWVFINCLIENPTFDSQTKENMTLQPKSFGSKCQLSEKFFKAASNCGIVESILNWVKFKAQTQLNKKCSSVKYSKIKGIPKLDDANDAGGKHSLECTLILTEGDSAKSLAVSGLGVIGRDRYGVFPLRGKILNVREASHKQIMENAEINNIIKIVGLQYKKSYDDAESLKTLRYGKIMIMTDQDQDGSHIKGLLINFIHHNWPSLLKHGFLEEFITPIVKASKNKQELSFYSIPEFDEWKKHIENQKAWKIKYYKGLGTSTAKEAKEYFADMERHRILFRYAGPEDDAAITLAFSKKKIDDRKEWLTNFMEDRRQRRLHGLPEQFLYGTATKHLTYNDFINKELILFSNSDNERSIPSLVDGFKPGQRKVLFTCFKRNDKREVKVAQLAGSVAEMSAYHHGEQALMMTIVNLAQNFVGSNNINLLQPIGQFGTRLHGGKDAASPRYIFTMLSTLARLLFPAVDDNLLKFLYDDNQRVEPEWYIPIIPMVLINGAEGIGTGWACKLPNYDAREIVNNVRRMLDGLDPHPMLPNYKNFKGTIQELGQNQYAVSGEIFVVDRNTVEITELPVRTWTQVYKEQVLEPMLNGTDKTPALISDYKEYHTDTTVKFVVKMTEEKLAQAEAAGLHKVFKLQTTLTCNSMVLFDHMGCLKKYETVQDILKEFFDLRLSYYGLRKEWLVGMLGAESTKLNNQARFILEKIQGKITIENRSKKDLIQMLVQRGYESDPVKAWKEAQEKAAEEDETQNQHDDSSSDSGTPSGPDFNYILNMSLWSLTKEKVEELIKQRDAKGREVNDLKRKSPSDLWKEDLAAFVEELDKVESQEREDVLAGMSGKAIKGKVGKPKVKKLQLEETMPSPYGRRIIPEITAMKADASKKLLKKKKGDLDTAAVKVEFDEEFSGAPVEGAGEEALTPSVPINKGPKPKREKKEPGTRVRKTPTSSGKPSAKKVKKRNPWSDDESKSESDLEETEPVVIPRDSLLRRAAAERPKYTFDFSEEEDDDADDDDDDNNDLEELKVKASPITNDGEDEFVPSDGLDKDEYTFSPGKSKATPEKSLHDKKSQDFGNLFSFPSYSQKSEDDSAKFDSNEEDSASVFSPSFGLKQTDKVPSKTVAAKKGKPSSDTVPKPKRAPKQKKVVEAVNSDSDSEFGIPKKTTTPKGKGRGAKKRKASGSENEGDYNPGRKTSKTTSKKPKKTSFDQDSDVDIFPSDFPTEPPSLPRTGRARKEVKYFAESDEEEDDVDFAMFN
T2 sequence (P11388 whole entry): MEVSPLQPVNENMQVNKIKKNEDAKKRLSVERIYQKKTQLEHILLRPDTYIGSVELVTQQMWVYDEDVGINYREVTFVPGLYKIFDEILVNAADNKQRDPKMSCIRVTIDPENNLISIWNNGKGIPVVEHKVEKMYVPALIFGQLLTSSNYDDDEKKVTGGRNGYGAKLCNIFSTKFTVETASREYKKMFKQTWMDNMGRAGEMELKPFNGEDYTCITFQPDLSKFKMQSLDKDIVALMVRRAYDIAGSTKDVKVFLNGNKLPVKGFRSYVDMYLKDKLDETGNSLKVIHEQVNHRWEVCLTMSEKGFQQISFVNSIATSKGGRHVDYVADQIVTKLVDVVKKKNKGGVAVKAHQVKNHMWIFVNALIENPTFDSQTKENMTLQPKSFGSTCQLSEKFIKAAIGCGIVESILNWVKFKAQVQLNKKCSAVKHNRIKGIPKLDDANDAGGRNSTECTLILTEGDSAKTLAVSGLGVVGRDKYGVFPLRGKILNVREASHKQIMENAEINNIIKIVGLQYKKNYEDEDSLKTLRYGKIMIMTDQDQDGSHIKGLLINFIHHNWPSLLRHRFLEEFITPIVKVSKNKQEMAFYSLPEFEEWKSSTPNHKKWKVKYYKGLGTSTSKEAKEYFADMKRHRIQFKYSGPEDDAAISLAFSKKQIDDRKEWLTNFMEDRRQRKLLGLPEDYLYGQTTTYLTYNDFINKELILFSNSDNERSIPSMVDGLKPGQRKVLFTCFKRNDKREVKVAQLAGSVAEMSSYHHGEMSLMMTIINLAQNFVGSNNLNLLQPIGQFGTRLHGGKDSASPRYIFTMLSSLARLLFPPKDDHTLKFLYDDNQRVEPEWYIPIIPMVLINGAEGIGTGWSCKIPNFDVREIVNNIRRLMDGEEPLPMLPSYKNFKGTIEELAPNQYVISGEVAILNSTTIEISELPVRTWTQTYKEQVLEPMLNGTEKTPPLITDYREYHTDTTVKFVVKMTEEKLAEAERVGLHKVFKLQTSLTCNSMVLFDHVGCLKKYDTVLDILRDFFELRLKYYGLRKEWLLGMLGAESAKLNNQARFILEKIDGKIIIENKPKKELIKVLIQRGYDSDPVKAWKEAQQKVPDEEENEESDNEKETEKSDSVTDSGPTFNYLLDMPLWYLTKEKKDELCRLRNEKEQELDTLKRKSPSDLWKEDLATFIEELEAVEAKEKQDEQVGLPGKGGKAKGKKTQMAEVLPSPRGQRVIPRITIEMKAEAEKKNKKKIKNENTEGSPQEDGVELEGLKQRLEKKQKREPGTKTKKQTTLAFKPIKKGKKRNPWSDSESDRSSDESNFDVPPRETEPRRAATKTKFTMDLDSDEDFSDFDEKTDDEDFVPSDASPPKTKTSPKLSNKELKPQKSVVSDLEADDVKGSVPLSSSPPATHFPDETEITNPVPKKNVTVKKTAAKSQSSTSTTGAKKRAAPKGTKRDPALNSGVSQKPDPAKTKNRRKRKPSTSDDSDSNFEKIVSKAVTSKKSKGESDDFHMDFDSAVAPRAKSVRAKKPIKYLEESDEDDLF

With `CCCc1cc(=O)oc2c(C(=O)N3CCCc4ccccc43)c(OCCO)ccc12` [5c] the remaining activity at 0.059 µM (recombinant human TOP2B [1]; 0.059 μM, independent replicates, read-out: Normalized % TOP2B activity, decatenation) was 106%, the remaining activity at 0.117 µM (recombinant human TOP2B [1]; 0.117 μM, independent replicates, read-out: Normalized % TOP2B activity, decatenation) was 112% and the remaining activity at 0.938 µM (recombinant human TOP2B [1]; 0.938 μM, independent replicates, read-out: Normalized % TOP2B activity, decatenation) was 66.9%. The remaining activity at 1.875 µM (recombinant human TOP2B [1]; 1.875 μM, independent replicates, read-out: Normalized % TOP2B activity, decatenation) was 29.8%, the “SRbeta (SRTOP2B), decatenation activity” value (recombinant human TOP2B [1]) was 2.2 and the IC50 (recombinant human TOP2B [1]) was 1430 nM. The remaining activity at 0.03125 µM (recombinant human TOP2B [2]; 0.03125 μM, independent replicates, read-out: Normalized % TOP2B activity, ATPase) was 99.9%, the remaining activity at 0.0625 µM (recombinant human TOP2B [2]; 0.0625 μM, independent replicates, read-out: Normalized % TOP2B activity, ATPase) was 98.5% and the remaining activity at 0.125 µM (recombinant human TOP2B [2]; 0.125 μM, independent replicates, read-out: Normalized % TOP2B activity, ATPase) was 96.8%. The remaining activity at 0.25 µM (recombinant human TOP2B [2]; 0.25 μM, independent replicates, read-out: Normalized % TOP2B activity, ATPase) was 89.9%, the remaining activity at 0.5 µM (recombinant human TOP2B [2]; 0.5 μM, independent replicates, read-out: Normalized % TOP2B activity, ATPase) was 77% and the remaining activity at 1 µM (recombinant human TOP2B [2]; 1 μM, independent replicates, read-out: Normalized % TOP2B activity, ATPase) was 61.7%. For the same molecule, the remaining activity at 2 µM (recombinant human TOP2B [2]; 2 μM, independent replicates, read-out: Normalized % TOP2B activity, ATPase) was 39.1%, the remaining activity at 4 µM (recombinant human TOP2B [2]; 4 μM, independent replicates, read-out: Normalized % TOP2B activity, ATPase) was 16.4% and the remaining activity at 8 µM (recombinant human TOP2B [2]; 8 μM, independent replicates, read-out: Normalized % TOP2B activity, ATPase) was 6.04%. For the same molecule, the “SRbeta (SRTOP2B), TOP2 ATPase activity” value (recombinant human TOP2B [2]) was 3.8, the IC50 (recombinant human TOP2B [2]) was 400 nM and 410 nM and the IC50 (recombinant human TOP2A) was 3210 nM.

`CCCc1cc(=O)oc2c(C(=O)N3CCCc4ccccc43)c(OC)cc(OC)c12` [BNS-22] was tested, and the “Normalized % TOP2B activity, decatenation” value (recombinant human TOP2B [1]; 0.029 μM, independent replicates) was 110.4% and 102.5% and 86.14%, the “Normalized % TOP2B activity, decatenation” value (recombinant human TOP2B [1]; 0.059 μM, independent replicates) was 117.4% and 95.62% and 85.84% and the “Normalized % TOP2B activity, decatenation” value (recombinant human TOP2B [1]; 0.117 μM, independent replicates) was 120.4% and 94.08% and 92.01%. The “Normalized % TOP2B activity, decatenation” value (recombinant human TOP2B [1]; 0.234 μM, independent replicates) was 93.24% and 96.15% and 88.28%, the “Normalized % TOP2B activity, decatenation” value (recombinant human TOP2B [1]; 0.469 μM, independent replicates) was 119.4% and 102% and 86.29% and the “Normalized % TOP2B activity, decatenation” value (recombinant human TOP2B [1]; 0.938 μM, independent replicates) was 128.5% and 90.51% and 82.07%. The “Normalized % TOP2B activity, decatenation” value (recombinant human TOP2B [1]; 1.875 μM, independent replicates) was 113% and 60.36% and 75.6%, the “Normalized % TOP2B activity, decatenation” value (recombinant human TOP2B [1]; 3.750 μM, independent replicates) was 78.05% and 36.23% and 45.78% and the “Normalized % TOP2B activity, decatenation” value (recombinant human TOP2B [1]; 7.500 μM, independent replicates) was 36.99% and 17.69% and 24.26%. The “Normalized % TOP2B activity, decatenation” value (recombinant human TOP2B [1]; 15.000 μM, independent replicates) was 19.21% and 12.13% and 18.98%, the “Normalized % TOP2B activity, decatenation” value (recombinant human TOP2B [1]; 30.000 μM, independent replicates) was 18.37% and 9.163% and 14.61% and the “SRbeta (SRTOP2B), decatenation activity” value (recombinant human TOP2B [1]) was 1.6. For the same molecule, the IC50 (recombinant human TOP2B [1]) was 4000 nM, the “Normalized % TOP2B activity, ATPase” value (recombinant human TOP2B [2]; 0.03125 μM, independent replicates) was 92.74% and 92.18% and 98.3% and the “Normalized % TOP2B activity, ATPase” value (recombinant human TOP2B [2]; 0.0625 μM, independent replicates) was 92.24% and 94.66% and 102.1588%. The “Normalized % TOP2B activity, ATPase” value (recombinant human TOP2B [2]; 0.125 μM, independent replicates) was 100.3668% and 84.21% and 108.4459%, the “Normalized % TOP2B activity, ATPase” value (recombinant human TOP2B [2]; 0.25 μM, independent replicates) was 91.2179% and 87.24% and 97.62% and the “Normalized % TOP2B activity, ATPase” value (recombinant human TOP2B [2]; 0.5 μM, independent replicates) was 80.5% and 76.19% and 88.45%. For the same molecule, the “Normalized % TOP2B activity, ATPase” value (recombinant human TOP2B [2]; 1 μM, independent replicates) was 58.26% and 48.84% and 67.64%, the “Normalized % TOP2B activity, ATPase” value (recombinant human TOP2B [2]; 2 μM, independent replicates) was 31.308% and 30.02% and 38.85% and the “Normalized % TOP2B activity, ATPase” value (recombinant human TOP2B [2]; 4 μM, independent replicates) was 10.88% and 8.636% and 13.51%. For the same molecule, the “Normalized % TOP2B activity, ATPase” value (recombinant human TOP2B [2]; 8 μM, independent replicates) was 2.82% and 1.793% and 10.43%, the “Normalized % TOP2B activity, ATPase” value (recombinant human TOP2B [2]; 16 μM, independent replicates) was 1.695% and 1.187% and 0.8652% and the “Normalized % TOP2B activity, ATPase” value (recombinant human TOP2B [2]; 32 μM, independent replicates) was 0.8806% and 0.9028% and 0.7954%. For the same molecule, the “selectivity ratio in favour of TOP2B (SRTOP2B)” value (recombinant human TOP2B [2]; ATP hydrolysis and DNA decatenation) was 1.5–1.6, the “SRbeta (SRTOP2B), TOP2 ATPase activity” value (recombinant human TOP2B [2]) was 1.5 and the IC50 (recombinant human TOP2B [2]) was 870 nM. For the same molecule, the “Normalized % TOP2A activity, decatenation” value (“Normalized % TOP2A activity” for short) (recombinant human TOP2A; 0.029 μM) was 129.2% and 104.9% and 108.1%, the “Normalized % TOP2A activity” value (recombinant human TOP2A; 0.059 μM) was 115.3% and 107.3% and 87.18% and the “Normalized % TOP2A activity” value (recombinant human TOP2A; 0.117 μM) was 112.3% and 85.14% and 77.75%. The “Normalized % TOP2A activity” value (recombinant human TOP2A; 0.234 μM) was 113.6% and 104.1% and 111.1%, the “Normalized % TOP2A activity” value (recombinant human TOP2A; 0.469 μM) was 107.6% and 108.2% and 94.85% and the “Normalized % TOP2A activity” value (recombinant human TOP2A; 0.938 μM) was 110.1% and 99.05% and 142.1%. The “Normalized % TOP2A activity” value (recombinant human TOP2A; 1.875 μM) was 103.6% and 97.25% and 87.84%, the “Normalized % TOP2A activity” value (recombinant human TOP2A; 3.750 μM) was 92.41% and 84.64% and 69.95% and the “Normalized % TOP2A activity” value (recombinant human TOP2A; 7.500 μM) was 58.26% and 36.7% and 30.82%. For the same molecule, the “Normalized % TOP2A activity” value (recombinant human TOP2A; 15.000 μM) was 19.52% and 10.3% and 12.12%, the “Normalized % TOP2A activity” value (recombinant human TOP2A; 30.000 μM) was 7.598% and 6.508% and 9.979% and the IC50 (recombinant human TOP2A) was 6510 nM.
